# “Also recorded” adds a separate entry of the source.
# Key:
# Type in all cases: cell-based, human
# [1] = test system: hiPSC-RPE cells (201B7modFucci line); experiment: Adhesion/expansion assay of plated string-like aggregates, 201B7modFucci line
# Procedure: The string-like aggregates were released from the grooves of the device, and the string-like aggregates were seeded onto an uncoated 24-well plate (Corning Incorporated) containing the mix medium. After adhesion of the string-like aggregates (2 to 3 days later), the medium was replaced with RPE maintenance medium (containing bFGF and SB431542). The dishes under culture were photographed using the IncuCyte Zoom system (Essen BioScience). From the obtained image data, expanded cells were manually marked using Fiji, and the expanded area was measured. The present inventors tested whether another hiPSC line could similarly form string-like aggregates. The present inventors used the 201B7modFucci line to induce RPE differentiation and compared it with hiPSC(M8)-RPE. hiPSC(201B7modFucci)-RPE also formed string-like aggregates like hiPSC(M8)-RPE, but the 201B7modFucci line required a Y-27632 concentration of 5 μM or higher to stably form string-like aggregates (FIG. 15-1A). The optimal Y-27632 concentration for adhesion/expansion assays was 5 μM for hiPSC(201B7modFucci)-string-like aggregates, and the optimal Y-27632 concentration for the desired adhesion/expansion effect varied depending on the cell line used and required optimization (FIGS. 14D and E). […]
# [2] = test system: hiPSC-RPE cells (M8 line); experiment: Adhesion and expansion of plated string-like aggregates on uncoated 24-well plate, M8 line; conditions: for adhesion to plate and expansion of string-like aggregates: uncoated wells
# Procedure: The string-like aggregates were released from the grooves of the device, and the string-like aggregates were seeded onto an uncoated 24-well plate (Corning Incorporated) containing the mix medium. After adhesion of the string-like aggregates (2 to 3 days later), the medium was replaced with RPE maintenance medium (containing bFGF and SB431542). The dishes under culture were photographed using the IncuCyte Zoom system (Essen BioScience). From the obtained image data, expanded cells were manually marked using Fiji, and the expanded area was measured. In the present inventors' preliminary experiment (FIG. 14A), higher concentrations of Y-27632 appeared to affect the texture of the string-like aggregates to become tighter. […] The string-like aggregates on day 2 (FIGS. 13D and E) and day 3 (FIGS. 13F and G) were then used to compare cell expansion after plating in uncoated wells between string-like aggregates formed with 2.5 and 10 μM Y-27632.
# hiPSC-RPEs (M8 line) = experiment: String-like aggregate formation under different Y-27632 concentrations, M8 line; conditions: for appearance of string-like aggregates: day 2
# Procedure: After thawing, hiPSC-RPE cells were cultured for 2 weeks, the cells were collected, and seeded in the number described in each experiment into each groove of the PDMS-based culture device, using 15 μl RPE maintenance medium containing the optimal concentration of Y-27632 (concentrations indicated for each experiment). In the present inventors' preliminary experiment (FIG. 14A), higher concentrations of Y-27632 appeared to affect the texture of the string-like aggregates to become tighter. […] Next, the present inventors directly compared string-like aggregates made with either 2.5 μM or 10 μM of Y-27632 (FIGS. 13B-G). […] On the other hand, string-like aggregates formed with 10 μM Y-27632 appeared more dense (FIG. 13B).
structure (smiles),measurement,setting,value
C[C@@H](N)[C@H]1CC[C@H](C(=O)Nc2ccncc2)CC1 [Y-27632],adhesiveness of string-like aggregates to the plate,"[1]; aggregates added with 2-2.5 μM Y-27632, 201B7modFucci line, day 2 aggregates, 24-well plate",consistently adherent to the plate
same,optimal Y-27632 concentration for adhesion/expansion assays,[1]; hiPSC(201B7modFucci)-string-like aggregates,5 µM
same,adhesiveness of string-like aggregates to the plate,"[2]; aggregates added with 2-2.5 μM Y-27632, M8 line, day 2 aggregates, 24-well plate",highest adhesiveness to the plate
same,adhesion to plate and expansion of string-like aggregates,"[2]; aggregates formed with 2.5 μM Y-27632, compared with 10 μM, day 2 and day 3 aggregates","tended to attach to the plate and begin to expand early after placing; also recorded: higher adhesiveness to the plate, covered more area, and began to expand faster on the plate"
same,adhesion to plate and expansion of string-like aggregates,[2]; aggregates formed with 10 μM Y-27632,expansion was delayed; also recorded: tended to be coil-like and moved around for several days before settling and starting to expand
same,string-like aggregate formation,"hiPSC-RPEs (M8 line); M8 line, 0 and 1 μM Y-27632",not successfully formed
same,Y-27632 concentration at which hiPSC-RPEs were able to form string-like aggregate shape,"hiPSC-RPEs (M8 line); M8 line, tested 0, 1, 2, 2.5 and 10 μM",above 2 μM
same,appearance of string-like aggregates,hiPSC-RPEs (M8 line); formed with 2.5 μM Y-27632,flat and loose
same,appearance of string-like aggregates,hiPSC-RPEs (M8 line); formed with 10 μM Y-27632,more dense

# — patent publication US20240216440A1, “STRING-LIKE AGGREGATES OF RETINAL PIGMENT EPITHELIAL CELLS, DEVICE AND PRODUCTION METHOD FOR PRODUCING SAME, AND THERAPEUTIC AGENT COMPRISING SAID STRING-LIKE AGGREGATES” (RIKEN, priority 2021, published 2024)
